We go through twelve molecules from patent US7615361B2, “Toxicity screening methods” (Ceetox, Inc., priority 2006, dated 2009).

Holding throughout (format): cell-based, rat
Series [1] concerns H4IIE cells. In words: Predicted Ctox from Tox-Panel. The following applies: 24 HR, estimated sustained plasma concentration where toxicity would be expected in vivo. The protocol: Once all data for a given cluster of assays are received, the data are analyzed to obtain a detailed profile of the compound's toxicity. For example, most conveniently, the data are collated over a dose response range on a single graph. In such an embodiment, the measurement evaluated for each parameter (i.e., each indicator of cell health) at any given concentration is plotted as a percentage of a control measurement obtained in the absence of the compound. However, it should be noted that the data need not be plotted on a single graph, so long as all the parameters are analyzed collectively to yield detailed information of the effects of the concentration of the compound on the different parameters to yield an overall toxicity profile. As set forth below, this overall toxicity profile will facilitate a determination of a plasma concentration Ctox that is predicted to be toxic in vivo. Ctox represents an estimate of the sustained plasma concentration in vivo that would result in toxicity, such as hepatotoxicity or hematopoietic toxicity.
Studies such as these indicate that a preferred concentration for setting Ctox is the highest concentration at which there is no observed effect on any of the indicators being measured in the cluster analysis, especially a 24-hour cluster analysis. […] It will be apparent that 24 hour assays are more time-effective, and consequently, the 24 hour NOEL/Ctox represents a preferred data point to select as Ctox in a CATS assay. It will also be apparent that, with further time studies, it may be possible to select an equally suitable Ctox at other CATS assay time points (e.g., between 24 and 72 hours, or less than 24 hours).
In certain embodiments, the predicting comprises performing concentration response analyses of measurements from at least three separate assays that are employed in the cluster analysis. For example, in the cell health cluster, such predicting will involve monitoring the concentration response effect of the compound on a first health indicator which monitors cellular replication, a second cell health indicator which monitors mitochondrial function, and a third cell health indicator which monitors membrane integrity. Of course, it is understood that fourth, fifth, sixth or more cell health indicators also may be employed. From these concentration response analyses, the highest concentration of the chemical compound at which a measurable toxic effect of the chemical compound is not observable, i.e. NOEL, is determined and the Ctox is identified as the concentration that correlates to the NOEL. In choosing the concentrations of the compound for analysis, one of skill in the art should devise a dose response regimen which is selected to provide an indication of cell health at concentrations of at least two concentration values higher than the Ctox concentration.
The Ctox (H4IIE) value was developed using 24 hr in vitro toxicity data and was validated by retrospectively evaluating compounds across different classes of drugs in 14-day rat studies in which compounds were administered on a daily basis and pharmacokinetic data was available. […] Thus, Ctox values are only determined for the 24 hr in vitro results. The 6 hr toxicity analyses are typically not performed but are beneficial for interpretation of results when compound toxicity is high (e.g., Ctox≦20 μM).

Series [2] is described as follows: Cell number (propidium iodide). The following applies: rat. The protocol: (§1) One test compound (Compound A) was received as dry powder and evaluated for potential cytotoxicity in a battery of in vitro assays. The compound was tested using both rat cardiomyocytes (CM) from rat neonates and a rat hepatoma (H4IIE) cell line. […] The cell supernatant or the cells themselves were harvested for biochemical analysis. General cytotoxicity was evaluated by monitoring membrane integrity, mitochondrial function, cell proliferation, oxidative stress, and apoptosis. In addition, interaction with P-glycoprotein (PgP) on H4IIE cells and solubility of the test compound were also assessed. The means of each exposure group (n=3-7) were calculated for each assay performed.
Experimental Protocol: The test compound was provided and stored at 4° C. until needed. Dosing solutions were prepared in complete culture medium. The rat hepatoma (H4IIE) cell line was used as the test system.
Cell Proliferation: Cell proliferation in each well was measured with propidium iodide (PI). This specific nucleic acid binding dye fluoresces when intercalated within the nucleic acids. The 15 nm shift enhances PI fluorescence approximately 20 times while the excitation maxima are shifted 30-40 nm. During method development experiments, it was determined that Triton-X-100 was the best solution to permeabilize the H4IIE cells thereby allowing the PI access to intracellular RNA and DNA. Fluorescence was measured using a Packard Fusion plate reader or equivalent reader at 540 nm excitation and 610 nm emission.
Cell Proliferation: After incubation, the test compound was removed and Triton X-100 solution containing propidium iodide is added. The plate was incubated and read on a fluorescent plate reader. Data was collected as relative fluorescent units (RFU). The blank was subtracted from the final well RFU. It represents the average of the first and last columns which contain no cells on that particular plate. The controls are untreated cells allowed to grow on the same plate. The compounds are represented by several separate RFU data points for each of the tested concentrations. The percent change relative to controls was calculated by dividing the average RFU by the control cell RFU and multiplying by 100.

Series [3] can be described thus: Intracellular total glutathione (GSH). The following applies: rat. How it is done: as §1
Series [4] can be described thus: MemTox membrane leakage (AK / α-GST). The protocol:
as §1
Membrane Leakage (α-Glutathione S-transferase and/or Adenylate Kinase): The presence of Adenylate Kinase (AK) or α-Glutathione S-transferase (α-GST), both enzyme leakage markers, was measured in the culture medium using an activity assay for Adenylate Kinase and/or an ELISA assay for α-GST. At the end of the exposure period, the medium covering the cells in each well was removed and placed into new 96-well plates with appropriate labeling. […] Luminescence (AK) values were measured with a Packard Fusion or equivalent plate reader, and absorbance (α-GST) values were measured with a Packard SpectraCount™ or equivalent reader at 450 nm and reference absorbance at 650 nm.
Membrane Leakage (α-Glutathione S-transferase and/or Adenylate Kinase): Leakage of Adenylate Kinase or α-GST from the cell into the culture medium was determined by collecting the culture medium at the end of the exposure period. Thus, the values measured represent total enzyme leakage lost over the exposure period. The control for 100% dead or maximum enzyme release was based on cells treated with 1 mM digitonin at the time of dosing. Percent dead cells relative to digitonin treated cells was determined and then subtracted from 100% to yield the percent live cells.

Series [5] can be described thus: MTT reduction. How it is done:
as §1
Tetrazolium Dye Reduction: 3-[4,5-dimethylthiazol-2-yl]

[6] abbreviates: H4IIE rat hepatoma cells, H4IIE, 24 HR exposure, read-out: Cell Number TC50.
Where [7] appears, read: neonatal rat cardiomyocytes, CM, 24 HR, read-out: Total GSH TC50.
The mark [8] stands for this setting: neonatal rat cardiomyocytes, rat cardiomyocytes (CM), 24 HR exposure, read-out: MemTox TC50.
[9] abbreviates: neonatal rat cardiomyocytes, rat cardiomyocytes (CM), 24 HR exposure, read-out: MTT TC50.

Consider `COc1cccc2c1C(=O)c1c(O)c3c(c(O)c1C2=O)C[C@@](O)(C(=O)CO)C[C@@H]3O[C@H]1C[C@H](N)[C@H](O)[C@H](C)O1` [ADRIAMYCIN, Adriamycin], for which the “Predicted Ctox” value in series [1] was 1 µM; in series [1] (listed as DOXORUBICIN), 7 µM. Besides, the CC50 at 24 h was found to be 18 µM in series [2] (Cell Number TC50), 1 µM in series [3], 7 µM in series [4] (rat) and 1 µM in series [5] (rat). Further, the CC50 at 1 h in series [3], in series [4] (rat) and in series [5] (rat) was more than 300 µM each time. The values for the CC50 at 3 h in series [3], in series [4] (rat) and in series [5] (rat) were 61 µM, more than 300 µM and 41 µM, respectively. In addition, the CC50 at 6 h in series [3] was 23 µM; in series [4] (rat) it was 40 µM; in series [5] (rat), 18 µM.
In the case of `Cc1cccc(C)c1OCC(=O)N[C@@H](Cc1ccccc1)[C@@H](O)C[C@H](Cc1ccccc1)NC(=O)[C@H](C(C)C)N1CCCNC1=O` [LOPINAVIR, lopinavir], the “Predicted Ctox” value in series [1] was 60 µM. Besides, the CC50 at 24 h was more than 300 µM in series [2] (Cell Number TC50), 69 µM in series [3], 76 µM in series [4] (rat) and 72 µM in series [5] (rat).
In the case of `COc1cccc2c1C(=O)c1c(O)c3c(c(O)c1C2=O)C[C@@](O)(C(C)=O)C[C@@H]3O[C@H]1C[C@H](N)[C@H](O)[C@H](C)O1` [DAUNORUBICIN, daunorubicin], in series [1], the “Predicted Ctox” value was 3 µM. For the same molecule, the CC50 at 24 h was 8 µM in series [2], less than 1 µM in series [3], 4 µM in series [4] (rat) and 6 µM in series [5] (rat).
Turning to `O=C1Nc2ccc(Cl)cc2[C@@](C#CC2CC2)(C(F)(F)F)O1` [EFAVIRENZ, efavirenz], the “Predicted Ctox” value in series [1] was 58 µM. Besides, the CC50 at 24 h was found to be 169 µM in series [2] (Cell Number TC50), 83 µM in series [3], 69 µM in series [4] (rat) and 79 µM in series [5] (rat).
For `CC(=O)[C@]1(O)Cc2c(O)c3c(c(O)c2[C@@H](O[C@H]2C[C@H](N)[C@H](O)[C@H](C)O2)C1)C(=O)c1ccccc1C3=O` [IDARUBICIN, idarubicin] the same measures were 1 µM, 4 µM, less than 1 µM, less than 1 µM and less than 1 µM.
Turning to `CC(C)Nc1cccnc1N1CCN(C(=O)c2cc3cc(NS(C)(=O)=O)ccc3[nH]2)CC1` [DELAVIRDINE, delavirdine], in series [1], the “Predicted Ctox” value is 68 µM. Moreover, the CC50 at 24 h in series [2] (Cell Number TC50) is more than 300 µM; in series [3], more than 300 µM; in series [4] (rat) it was 239 µM; in series [5] (rat) it was 252 µM.
Regarding `COc1cccc2c1C(=O)c1c(O)c3c(c(O)c1C2=O)C[C@@](O)(C(=O)CO)C[C@@H]3O[C@H]1C[C@H](N)[C@H](O[C@@H]2CCCCO2)[C@H](C)O1` [PIRARUBICIN, pirarubicin], in series [1], the “Predicted Ctox” value is 5 µM. Besides, the CC50 at 24 h in series [2] (setting [6]) turned out to be 8 µM; in series [3] (setting [7]) it was 6 µM; in series [4] (setting [8]), 6 µM; in series [5] (setting [9]), 7 µM.
Take `C=C(C)[C@H]1Cc2c(ccc3c2O[C@@H]2COc4cc(OC)c(OC)cc4[C@@H]2C3=O)O1` [ROTENONE, Rotenone]: the “Predicted Ctox” value in series [1] is 0.03 µM. In addition, the CC50 at 24 h in series [2] (H4IIE, 24 HR exposure, read-out: Cell Number TC50) amounted to 0.04 µM; in series [3] (CM, 24 HR, read-out: Total GSH TC50), 7 µM; in series [4] (rat cardiomyocytes (CM), 24 HR exposure, read-out: MemTox TC50), 56 µM; in series [5] (rat cardiomyocytes (CM), 24 HR exposure, read-out: MTT TC50), 33 µM.
In the case of `O=C1c2c(O)ccc(O)c2C(=O)c2c(NCCNCCO)ccc(NCCNCCO)c21` [MITOXANTRONE, mitoxantrone], the “Predicted Ctox” value in series [1] is 11 µM. Also, the CC50 at 24 h in series [2] (Cell Number TC50) is less than 1 µM; in series [3], less than 1 µM; in series [4] (rat) it was 2 µM; in series [5] (rat) it was 1 µM.
Regarding `Nc1nc(NC2CC2)c2ncn([C@H]3C=C[C@@H](CO)C3)c2n1` [ABACAVIR, abacavir], in series [1], the “Predicted Ctox” value was 65 µM. Moreover, the CC50 at 24 h in series [2] (Cell Number TC50), in series [3], in series [4] (rat) and in series [5] (rat) was more than 300 µM each time.
Take `COc1cccc2c1C(=O)c1c(O)c3c(c(O)c1C2=O)C[C@@](O)(C(=O)CO)C[C@@H]3O[C@H]1C[C@H](N)[C@@H](O)[C@H](C)O1` [EPIRUBICIN, epirubicin]: the “Predicted Ctox” value in series [1] was 8 µM. Also, the CC50 at 24 h in series [2] (Cell Number TC50) came out at 31 µM; in series [3], 13 µM; in series [4] (rat), 35 µM; in series [5] (rat), 16 µM.
`CC[C@@]1(O)C(=O)OCc2c1cc1n(c2=O)Cc2cc3ccccc3nc2-1` [CAMPTOTHECIN, Camptothecin]: the “Predicted Ctox” value in series [1] is 0.1 µM. Moreover, the CC50 at 24 h in series [2] (setting [6]) was 4 µM; in series [3] (setting [7]), more than 300 µM; in series [4] (setting [8]) it was more than 300 µM; in series [5] (setting [9]) it was more than 300 µM.
